Assay results from paper PMC11001709, “Anti-toxoplasma activity and DNA-binding of copper(II) and zinc(II) coordination compounds with 5-nitroimidazole-based ligands” (Journal of Biological Inorganic Chemistry, 2023).

System: not listed separately
Test: Distribution coefficient LogD7.4, shake-flask 1-octanol/MOPS buffer
Format: physicochemical
Details: octanol/water (MOPS buffer 10^–2 M), 25 °C, 3 h
Method: Solutions between 100 and 10 µM of the free ligands (cenz and onz) and the coordination compounds 3–10 were prepared in a MOPS buffer pH 7.4 as the aqueous phase and in 1-octanol as the organic phase. The absorption at 320 nm and 310 nm was determined for the aqueous and organic phase respectively by electronic spectroscopy (UV–Vis). Through a linear regression (concentration vs. absorption) the molar extinction coefficient of each compound in both phases was determined (Table 3). The lipophilicity was calculated in the 1-octanol/water system from the shake flask method using Eq. 1 [39]:1 […] where, Co is the final concentration in the organic phase and Cw is the final concentration in the aqueous phase (MOPS buffer at 10^–2 M pH 7.4). Both phases were presaturated with 50 µM solutions of the free ligands or 500 µM of each coordination compound and their UV spectrum was recorded. Both phases were combined and kept stirring for 3 h at 25 °C and in the absence of light. Subsequently, the mixture was centrifuged at 400g and the concentration in both phases was determined by UV–Vis spectroscopy using the Beer-Lambert law. The assays were performed in triplicate.
The T gondii parasite is an apicomplex organism; it requires a host cell to live, so it is important that the drugs used against the parasite have easy access to the cell. The lipophilicity of a compound is an important physicochemical property to determine its ability to permeate the biological membrane through passive diffusion; which usually is measured from the distribution coefficient logD7.4 = log(Co/Cw), in n-octanol/water. The shake-flask method was used to determine the LogD7.4 values from the molar extinction coefficients of the coordination compounds and the ligands in the two solvents (Table 3).

Row | SMILES | LogD7.4
1 | Cc1n(CC(O)CCl)c([N+](=O)[O-])c[n+]1[Cu-2]([Br])([Br])[n+]1cc([N+](=O)[O-])n(CC(O)CCl)c1C (stereo not drawn) [[Cu(onz)2Br2]] | 0.56
2 | Cc1ncc([N+](=O)[O-])n1CC(O)CCl.Cc1ncc([N+](=O)[O-])n1CC(O)CCl.[Cl][Zn][Cl] (stereo not drawn) [[Zn(onz)2Cl2]] | 0.90
3 | Cc1ncc([N+](=O)[O-])n1CCCl.Cc1ncc([N+](=O)[O-])n1CCCl.[Br][Cu][Br] [[Cu(cenz)2Br2]] | 0.62

System: pBR322 plasmid DNA
Test: Agarose gel electrophoresis, DNA cleavage
Format: biochemical
Details: compound 10 (mM in the source), + H2Asc
Method: Electrophoresis assays were performed in 1.5% agarose gel and 1× TBE buffer using the DNA plasmid pBR322. The plasmid (15 µM base pairs) was incubated with 10 and 50 μM concentrations of the coordination compounds for 1 h at 37 °C in presence and absence of ascorbic acid (50 μM) as reducing agent and hydrogen peroxide (500 µM) as ROS generator in a final volume of 20 μL. The DNA-cleaving compound [Cu(phen)2(H2O)](NO3)2 was used as reference. The samples were loaded into the gel with 4 μL of a loading buffer (30% glycerol, 5 mM xylene cyanol), and electrophoresis was performed in 1× TBE at 100 V for 1 h in a Bio-Rad horizontal tank. Subsequently, the gel was stained with SYBR™ Safe overnight and images were acquired with a Gel Doc EZ Imager instrument (Bio-Rad).
Distinct forms of pBR322 plasmid DNA are commonly observed by gel electrophoresis due to the conformational changes that present distinct electrophoretic mobility: (1) supercoiled DNA (Form I) that migrates faster on the gel, (2) circular nicked (Form II), obtained from a one-strand scission, has a slower migration through the gel and (3) linear form (Form III) is generated when both strands are cleaved and migrates between forms I and II [54]. The interaction of the free ligands and their copper(II) and zinc(II) coordination compounds with pBR322 was investigated in presence of H2Asc (50 μM) as reducing agent and H2O2 (500 μM) as ROS generator. Solutions of 10 and 50 µM of the coordination compounds were incubated with the DNA at 37 °C for 1 h.

Row | SMILES | %Damage | %Nicked | %Supercoiled
4 | Cc1n(CC(O)CCl)c([N+](=O)[O-])c[n+]1[Cu-2]([Br])([Br])[n+]1cc([N+](=O)[O-])n(CC(O)CCl)c1C (stereo not drawn) [[Cu(onz)2Br2]] | 44.70% | 35.60% | 55.30%
5 | Cc1ncc([N+](=O)[O-])n1CC(O)CCl.Cc1ncc([N+](=O)[O-])n1CC(O)CCl.[Cl][Zn][Cl] (stereo not drawn) [[Zn(onz)2Cl2]] | 91.2% | 65.70% | 8.80%
6 | Cc1ncc([N+](=O)[O-])n1CCCl.Cc1ncc([N+](=O)[O-])n1CCCl.[Br][Cu][Br] [[Cu(cenz)2Br2]] | 43.90% |  | 56.10%

Same assay, conditions: compound 10 (mM in the source), + H2Asc + H2O2

Row | SMILES | %Damage | %Nicked | %Supercoiled
7 | Cc1n(CC(O)CCl)c([N+](=O)[O-])c[n+]1[Cu-2]([Br])([Br])[n+]1cc([N+](=O)[O-])n(CC(O)CCl)c1C (stereo not drawn) [[Cu(onz)2Br2]] | 100.00% |  | 
8 | Cc1ncc([N+](=O)[O-])n1CC(O)CCl.Cc1ncc([N+](=O)[O-])n1CC(O)CCl.[Cl][Zn][Cl] (stereo not drawn) [[Zn(onz)2Cl2]] | 67.90% | 44.00% | 32.10%
9 | Cc1ncc([N+](=O)[O-])n1CCCl.Cc1ncc([N+](=O)[O-])n1CCCl.[Br][Cu][Br] [[Cu(cenz)2Br2]] | 100.00% |  | 

Same assay, conditions: compound 10 (mM in the source), + H2O2

Row | SMILES | %Damage | %Nicked | %Supercoiled
10 | Cc1n(CC(O)CCl)c([N+](=O)[O-])c[n+]1[Cu-2]([Br])([Br])[n+]1cc([N+](=O)[O-])n(CC(O)CCl)c1C (stereo not drawn) [[Cu(onz)2Br2]] | 100.00% |  | 
11 | Cc1ncc([N+](=O)[O-])n1CC(O)CCl.Cc1ncc([N+](=O)[O-])n1CC(O)CCl.[Cl][Zn][Cl] (stereo not drawn) [[Zn(onz)2Cl2]] | 10.80% | 5.90% | 89.20%
12 | Cc1ncc([N+](=O)[O-])n1CCCl.Cc1ncc([N+](=O)[O-])n1CCCl.[Br][Cu][Br] [[Cu(cenz)2Br2]] | 84.00% | 37.10% | 16.00%

Same assay, conditions: compound 10 (mM in the source), no additive

Row | SMILES | %Damage | %Supercoiled | %Nicked
13 | Cc1n(CC(O)CCl)c([N+](=O)[O-])c[n+]1[Cu-2]([Br])([Br])[n+]1cc([N+](=O)[O-])n(CC(O)CCl)c1C (stereo not drawn) [[Cu(onz)2Br2]] | 7.80% | 92.20% | 
14 | Cc1ncc([N+](=O)[O-])n1CC(O)CCl.Cc1ncc([N+](=O)[O-])n1CC(O)CCl.[Cl][Zn][Cl] (stereo not drawn) [[Zn(onz)2Cl2]] | 14.6% | 85.40% | 
15 | Cc1ncc([N+](=O)[O-])n1CCCl.Cc1ncc([N+](=O)[O-])n1CCCl.[Br][Cu][Br] [[Cu(cenz)2Br2]] | 37.80% | 62.20% | 11.30%

Same assay, conditions: compound 50 (mM in the source), + H2Asc

Row | SMILES | %Damage | %Nicked
16 | Cc1n(CC(O)CCl)c([N+](=O)[O-])c[n+]1[Cu-2]([Br])([Br])[n+]1cc([N+](=O)[O-])n(CC(O)CCl)c1C (stereo not drawn) [[Cu(onz)2Br2]] | 100.00% | 
17 | Cc1ncc([N+](=O)[O-])n1CC(O)CCl.Cc1ncc([N+](=O)[O-])n1CC(O)CCl.[Cl][Zn][Cl] (stereo not drawn) [[Zn(onz)2Cl2]] | 100% | 4.80%
18 | Cc1ncc([N+](=O)[O-])n1CCCl.Cc1ncc([N+](=O)[O-])n1CCCl.[Br][Cu][Br] [[Cu(cenz)2Br2]] | 100.00% | 

Same assay, conditions: compound 50 (mM in the source), + H2Asc + H2O2

Row | SMILES | %Damage
19 | Cc1n(CC(O)CCl)c([N+](=O)[O-])c[n+]1[Cu-2]([Br])([Br])[n+]1cc([N+](=O)[O-])n(CC(O)CCl)c1C (stereo not drawn) [[Cu(onz)2Br2]] | 100.00%
20 | Cc1ncc([N+](=O)[O-])n1CC(O)CCl.Cc1ncc([N+](=O)[O-])n1CC(O)CCl.[Cl][Zn][Cl] (stereo not drawn) [[Zn(onz)2Cl2]] | 100.00%
21 | Cc1ncc([N+](=O)[O-])n1CCCl.Cc1ncc([N+](=O)[O-])n1CCCl.[Br][Cu][Br] [[Cu(cenz)2Br2]] | 100.00%

Same assay, conditions: compound 50 (mM in the source), + H2O2

Row | SMILES | %Damage | %Nicked | %Supercoiled
22 | Cc1n(CC(O)CCl)c([N+](=O)[O-])c[n+]1[Cu-2]([Br])([Br])[n+]1cc([N+](=O)[O-])n(CC(O)CCl)c1C (stereo not drawn) [[Cu(onz)2Br2]] | 100.00% |  | 
23 | Cc1ncc([N+](=O)[O-])n1CC(O)CCl.Cc1ncc([N+](=O)[O-])n1CC(O)CCl.[Cl][Zn][Cl] (stereo not drawn) [[Zn(onz)2Cl2]] | 78.30% | 47.60% | 21.70%
24 | Cc1ncc([N+](=O)[O-])n1CCCl.Cc1ncc([N+](=O)[O-])n1CCCl.[Br][Cu][Br] [[Cu(cenz)2Br2]] | 100.00% |  | 

Same assay, conditions: compound 50 (mM in the source), no additive

Row | SMILES | %Damage | %Nicked | %Supercoiled
25 | Cc1n(CC(O)CCl)c([N+](=O)[O-])c[n+]1[Cu-2]([Br])([Br])[n+]1cc([N+](=O)[O-])n(CC(O)CCl)c1C (stereo not drawn) [[Cu(onz)2Br2]] | 6.70% | 23.00% | 93.30%
26 | Cc1ncc([N+](=O)[O-])n1CC(O)CCl.Cc1ncc([N+](=O)[O-])n1CC(O)CCl.[Cl][Zn][Cl] (stereo not drawn) [[Zn(onz)2Cl2]] | 32.9% | 3.90% | 67.10%
27 | Cc1ncc([N+](=O)[O-])n1CCCl.Cc1ncc([N+](=O)[O-])n1CCCl.[Br][Cu][Br] [[Cu(cenz)2Br2]] | 33.80% | 7.50% | 66.20%

System: ct-DNA
Test: Circular dichroism of ct-DNA
Format: binding, calf
Details: [DNA]b = 50 µM, [complex]/[DNA] 0-2, 1 h 37 °C
Method: For the UV–Vis, fluorescence and circular dichroism assays the concentration of ct-DNA was determined on a Varian Cary 100 Scan spectrophotometer from the absorption at 260 nm and the corresponding molar absorptivity of 6600 M^−1 cm^−1 (nucleobase concentration). The stock solutions of the coordination compounds and the free ligands were prepared in cacodylate/NaCl buffer (1 mM cacodylic acid and 20 mM sodium chloride) at pH 7.25. The final samples contained a DMSO concentration of 0.2%.
Circular dichroism (CD) spectra were recorded using a JASCO-815 spectropolarimeter, equipped with xenon-arc lamp of 450 W. The sample compartment was air-purged with N2 before use. For the measurements, a quartz cuvette with an optical path of 5 mm was used. A solution of 25 µM (in base pairs) of ct-DNA in cacodylate/NaCl buffer was incubated for 1 h at 37 °C with increasing amounts of coordination compounds (0–50 µM). The CD spectra were recorded at room temperature.
The interaction of small molecules with DNA can modify these CD signals depending on the type of binding. Intercalative interactions increase the intensity of the signals, as the result of an increase of the stability of the B conformation, whereas groove binding or covalent interactions tend to decrease the intensity of these signals, which are moreover displaced. The CD spectra for both ligands and their copper(II) and zinc(II) complexes were obtained at constant concentration of ct-DNA, increasing the complex concentration up to two equivalents ([complex]/[DNA] ratios of 0, 0.2, 0.4, 1, 2) with respect to the nucleobases concentration ([DNA]b = 50 µM).

Row | SMILES | effect on CD spectrum of ct-DNA (bands at 275 and 245 nm)
28 | Cc1n(CC(O)CCl)c([N+](=O)[O-])c[n+]1[Cu-2]([Br])([Br])[n+]1cc([N+](=O)[O-])n(CC(O)CCl)c1C (stereo not drawn) [[Cu(onz)2Br2]] | decrease of the intensity of the positive and negative bands
29 | Cc1ncc([N+](=O)[O-])n1CC(O)CCl.Cc1ncc([N+](=O)[O-])n1CC(O)CCl.[Cl][Zn][Cl] (stereo not drawn) [[Zn(onz)2Cl2]] | spectra changes are minor
30 | Cc1ncc([N+](=O)[O-])n1CCCl.Cc1ncc([N+](=O)[O-])n1CCCl.[Br][Cu][Br] [[Cu(cenz)2Br2]] | decrease of the intensity of the positive and negative bands
